From US20260347372A1, “SMALL MOLECULE INHIBITORS OF KRAS G12D MUTANT” (MERCK SHARP & DOHME LLC, priority 2023, published 2026)

Assays:
KRAS G12V = KRAS G12V (Homo sapiens, UniProt P01116, G12V); experiment: SOS-catalyzed nucleotide exchange assay, KRAS G12V (Procedure A); type: biochemical; details: GNE
Procedure, shortened: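 Biotinylated KRAS G12V was loaded with Bodipy-GDP alongside Terbium-streptavidin to form a TR-FRET complex, which was preincubated with compounds for 60 minutes in 384-well plates. Human SOS protein and unlabeled GTP were then added for 90 minutes, giving final concentrations of 1.25 nM KRAS-G12V, 160 nM SOS and 3 mM GTP. The 520/495 nm emission ratio was read on an Envision.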

KRAS G13D = KRAS G13D (Homo sapiens, UniProt P01116, G13D); experiment: SOS-catalyzed nucleotide exchange assay, KRAS G13D (Procedure A); type: biochemical; details: GNE
Source text: (§1) Procedure for SOS-Catalyzed Nucleotide Exchange Assay for KRAS-WT, G12C/D/V, G13D, HRAS, and NRAS (Procedure A)
(§2) Recombinant KRAS-G12C protein used in this assay has an additional triple mutation (C51S/C80L/C118S). Whereas KRAS-WT, G12D/V, G13D, HRAS and NRAS are in context of their WT protein sequence background. Specifically, the SOS-catalyzed nucleotide exchange assay utilizes a preformed TR-FRET complex containing a specific biotinylated RAS protein (KRAS-WT, G12C/V/D, G13D, HRAS, NRAS; described above) with Bodipy-GDP, and Terbium-streptavidin. Compounds are preincubated with this complex for 60 minutes. Subsequently, recombinant human SOS protein and unlabeled GTP are added to initiate the exchange reaction. Small molecule inhibitors stabilize the Bodipy-GDP complex whereas the untreated protein rapidly exchanges Bodipy-GDP for unlabeled GTP resulting in reduced TR-FRET signal.
(§3) To assemble the preformed TR-FRET complexes, each biotinylated RAS protein is diluted to 2 μM in an EDTA Buffer (20 mM HEPES pH 7.5, 50 mM sodium chloride, 10 mM EDTA, and 0.01% Tween) and incubated at room temperature for one hour. This mixture is then further diluted to 90 nM in an Assay Buffer (20 mM HEPES pH 7.5, 150 mM sodium chloride, 10 mM magnesium chloride, and 0.005% Tween) containing 15 nM of Terbium-Streptavidin (Invitrogen, catalog #PV3577) and 900 nM of Bodipy-GDP (Invitrogen, catalog #G22360) and incubated at room temperature for six hours. It should be noted that this preformed TR-FRET complex for each of the RAS protein were made ahead of time, aliquoted and stored at −80° C. until the day of the experiment.
(§4) Each test compound (10 mM stock in DMSO) is diluted in DMSO to make a final-10-point, 3-fold dilution and is acoustically dispensed into a 384-well assay plate (Corning, catalog #3820) using an Echo 550 (Labcyte). Each well of the assay plate receives 3 μL of a specific 3×RAS preformed TR-FRET complex and 3 μL of Assay Buffer and is incubated at room temperature for 60 minutes (preincubation time). Each well then receives 3 μL of 3× recombinant human SOS protein and GTP (Sigma, G8877) in Assay Buffer and is incubated at room temperature for 30 minutes (G13D), 60 minutes (KRAS WT/G12C/D, H/NRAS) or 90 minutes for G12V. The final reaction in each well of 9 μL consists of 3 mM GTP, specific Ras and SOS proteins in the following concentrations: KRAS-G12C/SOS=3 nM/40 nM, KRAS-WT and G12D/SOS=1 nM/40 nM, KRAS-G12V/SOS=1.25 nM/160 nM, KRAS-G13D/SOS=1.25 nM/0 nM, HRAS and NRAS=1.25 nM/40 nM.
(§5) The time-resolved fluorescence resonance energy transfer (TR-FRET) signal is measured on an Envision (PerkinElmer) plate reader: Excitation filter=340 nm; emission1=495 nm; emission2=520 nm; dichroic mirror=D400/D505; delay time=[…]. The signal of each well is determined as the ratio of the emission at 520 nm to that at 495 nm. Percent effect of each well is determined after normalization to control wells containing DMSO (no effect) or a saturating concentration of inhibitor (max effect). The apparent effect as a function of compound concentration is fit to a four-parameter logistic equation.
(§6) For Example No. 14, nucleotide exchange assays for KRAS G12D, WT, G12C, and G12V were performed according to Procedure B. All the other compounds were tested according to Procedure A.

KRAS G12C = KRAS G12C (Homo sapiens, UniProt P01116, C118S/C51S/C80L/G12C); experiment: SOS-catalyzed nucleotide exchange assay, KRAS G12C (Procedure A); type: biochemical; details: GNE
Source text: as §1, §2, §3, §4, §5, §6

HRAS = HRAS (Homo sapiens, UniProt P01112); experiment: SOS-catalyzed nucleotide exchange assay, HRAS (Procedure A); type: biochemical; details: GNE
Source text: as §1, §2, §3, §4, §5, §6

AsPC-1 cells = target: T1, AsPC-1 cells (Homo sapiens, UniProt P01116, G12D); experiment: Cellular phospho-ERK assay, AsPC-1 cells (KRAS G12D); type: cell-based; details: 2 hours, read-out: AsPC1 pERK IC50
T1 construct: p-ERK/total ERK AlphaSureFire read-out
Procedure, shortened: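 PANC08.13 or AsPC-1 cells (homozygous KRAS G12D) were seeded overnight, then treated for 2 h at 37 °C with a 10-point 1:3 titration from 30 μM. Lysates were assayed by AlphaLISA SureFire for p-ERK and total ERK. IC50 came from a 4-parameter fit of the p-ERK/total ERK ratio.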

NRAS = NRAS (Homo sapiens, UniProt P01111); experiment: SOS-catalyzed nucleotide exchange assay, NRAS (Procedure A); type: biochemical; details: GNE
Source text: as §1, §2, §3, §4, §5, §6

KRAS WT = KRAS WT (Homo sapiens, UniProt P01116); experiment: SOS-catalyzed nucleotide exchange assay, KRAS WT (Procedure A); type: biochemical; details: GNE
Procedure, shortened: (§7)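 Preformed TR-FRET complex of biotinylated KRAS (G12C carries C51S/C80L/C118S; others native sequence), Bodipy-GDP and Tb-streptavidin preincubated with compound 60 min at room temperature. Exchange started with human SOS plus 3 mM GTP for 60 min (G13D 30 min). Final RAS/SOS: G12C 3/40 nM; WT, G12D 1/40 nM; G13D 1.25/0 nM. 520/495 nm ratio normalised, fitted to four-parameter logistic.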

KRAS G12D = KRAS G12D (Homo sapiens, UniProt P01116, G12D); experiment: SOS-catalyzed nucleotide exchange assay, KRAS G12D (Procedure A); type: biochemical; details: guanine nucleotide exchange (GNE)
Procedure, shortened: as §7

Sequence of HRAS (P01112 with tags, fused parts or gaps): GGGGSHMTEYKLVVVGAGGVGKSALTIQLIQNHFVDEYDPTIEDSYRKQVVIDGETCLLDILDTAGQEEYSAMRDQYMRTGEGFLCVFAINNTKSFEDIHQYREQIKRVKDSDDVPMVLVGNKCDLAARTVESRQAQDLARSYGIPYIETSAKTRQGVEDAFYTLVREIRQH
T1 sequence (P01116 1-188 isoform P01116-2 G12D): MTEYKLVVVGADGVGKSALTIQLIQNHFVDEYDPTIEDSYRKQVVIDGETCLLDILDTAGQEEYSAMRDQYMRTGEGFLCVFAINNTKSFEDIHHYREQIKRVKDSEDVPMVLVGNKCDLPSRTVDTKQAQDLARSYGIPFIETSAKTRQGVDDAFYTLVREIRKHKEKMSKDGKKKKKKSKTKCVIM
Sequence of KRAS G12D (P01116 with tags, fused parts or gaps isoform P01116-2 G12D): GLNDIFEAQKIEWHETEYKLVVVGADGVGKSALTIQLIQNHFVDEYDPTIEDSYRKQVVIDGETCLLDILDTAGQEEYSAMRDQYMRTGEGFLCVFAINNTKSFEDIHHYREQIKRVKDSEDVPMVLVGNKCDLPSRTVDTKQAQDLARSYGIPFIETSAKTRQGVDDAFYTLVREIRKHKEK
Sequence of KRAS WT (P01116 with tags, fused parts or gaps isoform P01116-2): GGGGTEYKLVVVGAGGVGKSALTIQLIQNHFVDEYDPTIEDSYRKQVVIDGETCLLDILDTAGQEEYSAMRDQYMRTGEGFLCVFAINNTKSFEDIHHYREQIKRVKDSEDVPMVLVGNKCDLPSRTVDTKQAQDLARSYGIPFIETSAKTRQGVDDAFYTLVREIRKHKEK
Sequence of KRAS G12C (P01116 with tags, fused parts or gaps isoform P01116-2 G12C/C51S/C80L/C118S): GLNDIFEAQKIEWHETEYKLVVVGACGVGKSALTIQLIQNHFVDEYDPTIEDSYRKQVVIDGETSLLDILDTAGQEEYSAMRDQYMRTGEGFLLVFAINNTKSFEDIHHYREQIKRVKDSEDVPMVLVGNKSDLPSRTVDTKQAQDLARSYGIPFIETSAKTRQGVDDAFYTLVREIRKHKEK
Sequence of KRAS G13D (P01116 with tags, fused parts or gaps isoform P01116-2 G13D): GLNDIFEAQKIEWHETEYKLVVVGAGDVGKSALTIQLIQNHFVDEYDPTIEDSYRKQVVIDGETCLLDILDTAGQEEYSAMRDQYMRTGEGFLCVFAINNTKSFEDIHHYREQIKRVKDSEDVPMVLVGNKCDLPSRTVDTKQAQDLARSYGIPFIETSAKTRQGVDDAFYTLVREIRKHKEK
Sequence of KRAS G12V (P01116 with tags, fused parts or gaps isoform P01116-2 G12V): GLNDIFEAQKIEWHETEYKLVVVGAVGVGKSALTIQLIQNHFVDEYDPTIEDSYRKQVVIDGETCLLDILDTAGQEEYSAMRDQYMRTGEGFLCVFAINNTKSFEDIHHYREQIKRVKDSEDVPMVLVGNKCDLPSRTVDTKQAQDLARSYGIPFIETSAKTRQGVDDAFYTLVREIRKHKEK
Sequence of NRAS (P01111 with tags, fused parts or gaps): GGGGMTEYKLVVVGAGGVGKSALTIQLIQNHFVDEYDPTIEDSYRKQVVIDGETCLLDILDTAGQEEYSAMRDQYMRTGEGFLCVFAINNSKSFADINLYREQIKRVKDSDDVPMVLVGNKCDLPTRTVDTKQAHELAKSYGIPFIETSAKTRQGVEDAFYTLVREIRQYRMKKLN

| SMILES | IC50 (KRAS G12V) | IC50 (KRAS G13D) | IC50 (KRAS G12C) | IC50 (HRAS) | IC50 (AsPC-1 cells) | IC50 (NRAS) | IC50 (KRAS WT) | IC50 (KRAS G12D) |
| --- | --- | --- | --- | --- | --- | --- | --- | --- |
| Cc1cc2[nH]ncc2c(-c2nccc3c2sc2nc(OCC4CCS(=O)(=O)CC4)nc(N4C[C@H]5CC[C@@H](C4)N5)c23)c1C(F)(F)F [Ex-36, 4-(((4-((1R,5S)-3,8-diazabicyclo[3.2.1]octan-3-yl)-8-(6-methy1-5-(trifluoromethyl)-1H-indazol-4-yl)pyrido[4′,3′:4,5]thieno[2,3-d]pyrimidin-2-yl)oxy)methyl)tetrahydro-2H-thiopyran 1,1-dioxide] | > 11.1 µM | > 11.1 µM | > 11.1 µM | > 11.1 µM | 28.4 µM | > 11.1 µM | > 11.1 µM | 4.12 µM |
| F[C@H]1CN2CCC[C@@]2(COc2nc(N3C[C@H]4CC[C@@H](C3)N4)c3c(n2)sc2c(-c4c(C5CC5)c(Cl)cc5[nH]ncc45)nccc23)C1 [Ex-20, 4-((1R,5S)-3,8-diazabicyclo[3.2.1]octan-3-yl)-8-(6-chloro-5-cyclopropyl-1H-indazol-4-yl)-2-(((2R,7aS)-2-fluorotetrahydro-1H-pyrrolizin-7a(5H)-yl)methoxy)pyrido[4′,3′:4,5]thieno[2,3-d]pyrimidine] | 1.24 µM | 0.287 µM | 0.412 µM | > 11.1 µM | 0.296 µM | > 11.1 µM | 1.16 µM | 0.00805 µM |
| Cc1cc2[nH]ncc2c(-c2nccc3c2sc2nc(OC[C@@]45CCCN4C[C@H](F)C5)nc(NCC4(N(C)C)CCC4)c23)c1C(F)(F)F [Ex-74, N-((1-(dimethylamino)cyclobutyl)methyl)-2-(((2R,7aS)-2-fluorotetrahydro-1H-pyrrolizin-7a(5H)-yl)methoxy)-8-(6-methyl-5-(trifluoromethyl)-1H-indazol-4-yl)pyrido[4′,3′:4,5]thieno[2,3-d]pyrimidin-4-amine] | > 11.1 µM | 2.88 µM | > 11.1 µM | > 11.1 µM | 12.1 µM | > 11.1 µM | > 11.1 µM | 1.3 µM |
| Cc1cc2[nH]ncc2c(-c2nccc3c2sc2nc(OC[C@@]45CCCN4C[C@H](F)C5)nc(N4CCC5CCC(C4)N5)c23)c1C(F)(F)F (stereo partly drawn) [Ex-72, 4-(3,9-diazabicyclo[4.2.1]nonan-3-yl)-2-(((2R,7aS)-2-fluorotetrahydro-1H-pyrrolizin-7a(5H)-yl)methoxy)-8-(6-methyl-5-(trifluoromethyl)-1H-indazol-4-yl)pyrido[4′,3′:4,5]thieno[2,3-d]pyrimidine] | > 11.1 µM | 2.62 µM | > 11.1 µM | > 11.1 µM | > 30 µM | > 11.1 µM | > 11.1 µM | 5.3 µM |
| Cc1cc2[nH]ncc2c(-c2nccc3c2sc2nc(OCC4(C#N)CCOCC4)nc(N4C[C@H]5CC[C@@H](C4)N5)c23)c1C(F)(F)F [Ex-38, 4-(((4-((1R,5S)-3,8-diazabicyclo[3.2.1]octan-3-yl)-8-(6-methyl-5-(trifluoromethyl)-1H-indazol-4-yl)pyrido[4′,3′:4,5]thieno[2,3-d]pyrimidin-2-yl)oxy)methyl)tetrahydro-2H-pyran-4-carbonitrile] | > 11.1 µM | 3.55 µM | > 11.1 µM | > 11.1 µM | > 30 µM | > 11.1 µM | > 11.1 µM | 3.79 µM |

Further lines, results first:

| IC50 (KRAS G12V) | IC50 (KRAS G13D) | IC50 (KRAS G12C) | IC50 (HRAS) | IC50 (AsPC-1 cells) | IC50 (NRAS) | IC50 (KRAS WT) | IC50 (KRAS G12D) | SMILES |
| --- | --- | --- | --- | --- | --- | --- | --- | --- |
| 1.36 µM | 3.05 µM | 1.85 µM | > 11.1 µM | 11.1 µM | > 11.1 µM | 6.6 µM | 0.267 µM | Cc1cc2[nH]ncc2c(-c2nccc3c2sc2nc(OC[C@@]45CCCN4C[C@H](F)C5)nc(N4C5CNCC4C5)c23)c1C(F)(F)F [Ex-68, 4-(3,6-diazabicyclo[3.1.1]heptan-6-yl)-2-(((2R,7aS)-2-fluorotetrahydro-1H-pyrrolizin-7a(5H)-yl)methoxy)-8-(6-methyl-5-(trifluoromethyl)-1H-indazol-4-yl)pyrido[4′,3′:4,5]thieno[2,3-d]pyrimidine] |
| > 11.1 µM | > 11.1 µM | > 11.1 µM | > 11.1 µM | 4.79 µM | > 11.1 µM | > 11.1 µM | 1.39 µM | Cc1cc2[nH]ncc2c(-c2nccc3c2sc2nc(OC[C@@]45CCCN4C[C@H](F)C5)nc(N4[C@@H]5CC[C@H]4CN(C)C5)c23)c1C(F)(F)F [Ex-73, 2-(((2R,7aS)-2-fluorotetrahydro-1H-pyrrolizin-7a(5H)-yl)methoxy)-8-(6-methyl-5-(trifluoromethyl)-1H-indazol-4-yl)-4-((1R,5S)-3-methyl-3,8-diazabicyclo[3.2.1]octan-8-yl)pyrido[4′,3′:4,5]thieno[2,3-d]pyrimidine] |
| 5.16 µM | 2.51 µM | 1.1 µM | > 11.1 µM | 0.885 µM | > 11.1 µM | 8.09 µM | 0.0348 µM | Cc1cc2[nH]ncc2c(-c2nccc3c2sc2nc(OC[C@@]45CCCN4C[C@H](F)C5)nc(N4[C@@H]5CC[C@H]4CNC5)c23)c1C(F)(F)F [Ex-71, 4-((1R,5S)-3,8-diazabicyclo[3.2.1]octan-8-yl)-2-(((2R,7aS)-2-fluorotetrahydro-1H-pyrrolizin-7a(5H)-yl)methoxy)-8-(6-methyl-5-(trifluoromethyl)-1H-indazol-4-yl)pyrido[4′,3′:4,5]thieno[2,3-d]pyrimidine] |
| 9.75 µM | 2.26 µM | 0.948 µM | > 11.1 µM | 5.11 µM | > 11.1 µM | 7.5 µM | 0.836 µM | Cc1cc2[nH]ncc2c(-c2nccc3c2sc2nc(OC[C@@]45CCCN4C[C@H](F)C5)nc(N4C[C@H]5C[C@@H]4CN5)c23)c1C(F)(F)F [Ex-70, 4-((1R,4R)-2,5-diazabicyclo[2.2.1]heptan-2-yl)-2-(((2R,7aS)-2-fluorotetrahydro-1H-pyrrolizin-7a(5H)-yl)methoxy)-8-(6-methyl-5-(trifluoromethyl)-1H-indazol-4-yl)pyrido[4′,3′:4,5]thieno[2,3-d]pyrimidine] |
